Assay results as given in ChEMBL document CHEMBL3430912, “GSK Tres Cantos Anti-Kinetoplastid Screening (TCAKS) Data”.

Key:
[1] = test system: Trypanosoma cruzi; assay: (§1) GSK_TCAKS: pIC50 H2C9 Imaging: H9c2 Host Cardiomyocytes. […] Cells were then washed once with PBS before infection. T. cruzi trypomastigotes, collected at days 5 to 8 after infection from LLC-MK2 parasite infected cultures, were allowed to swim out for 4h at 37C from a centrifuged pellet (2,500 rpm/10 min/room temperature). Trypomastigotes were then collected and counted in a CASY Cell Counter. Trypomastigotes, in supplemented DMEM, were added to H9c2 cultures in a multiplicity of infection of 1 and incubated for 18 h. Cells were washed once with PBS before incubation of the infected H9c2 monolayer with trypsin (Life-Technologies) to detach cells from the flask. Cells were counted in a CASY Cell Counter using a 150 um capillary and their density set at 5 * 10^4 cells per mL in supplemented assay DMEM. Infected H9c2 were dispensed into 384-well poly-lysine coated assay plates at 50uL per well using a Multidrop Combi dispenser. After seeding them, the plates were incubated at 37C, 5% CO2 for 72h. Cultures were then fixed and stained by addition of 50 uL of a solution containing 8% formaldehyde and 4 uM DRAQ5 DNA dye (BioStatus, UK) per well. […] Five images were collected per well for reliable statistical analysis. Automated image analysis was performed with a script developed on Acapella High Content Imaging and Analysis Software (PerkinElmer). Output: Number of H9c2 Host Cardiomyocytes nuclei to determine drug-related cytotoxicity.; format: functional, organism-based, Rattus norvegicus; settings: H9c2, 4 h
[2] = test system: Leishmania donovani; assay: GSK_TCAKS: pIC50 Leishmania donovani Imaging: THP-1 Host Macrophages. Assay plates (384-well) were prepared by adding 250nL of compound to each well. For single shot assay, the final compound concentration was 5 uM. […] Automated image analysis was performed with a script developed on Acapella High Content Imaging and Analysis Software (PerkinElmer). Output: THP-1 cell count were reported for each well.; format: functional, organism-based, Homo sapiens
[3] = test system: Trypanosoma brucei brucei; assay: GSK_TCAKS: pIC50 Trypanosoma brucei viability assay using fluorescence intensity. Assay plates (1536-well) were prepared by dispensing 25nL of compound solution per well using an Echo acoustic dispenser (Labcyte).; format: functional, organism-based; settings: Lister 427, 2 h
[4] = test system: Leishmania donovani; assay: GSK_TCAKS: pIC50 Leishmania donovani viability assay using fluorescence intensity. Assay plates (1536-well) were prepared by adding 30nL per well of compound. For single shot assay, the final compound concentration was 5uM. […] Briefly, eGFP LdBOB axenic amastigotes were harvested, fixed and counted in a CASY cell counter (Roche-Applied Science). A final concentration of 1.5 * 10^5 cells per well were prepared in amastigote media containing 500 U/mL penicillin/streptomycin (Invitrogen) and 6uL was dispensed to each experimental well using a Multidrop Combi dispenser (Thermo Scientific). 6uL of assay media was dispensed to control columns used as reference for 100% compound response. Following incubation for 72 h at 37C, 5% CO2, 2 uL of resazurin was added to each well at a final concentration of 0.5 mM in phosphate buffered saline (PBS) with IGEPAL (Sigma-Aldrich), 0.05% (v/v).; format: functional, organism-based
[5] = test system: Trypanosoma cruzi; assay: GSK_TCAKS: pIC50 Trypanosoma cruzi viability assay using beta-GAL activity. This assay was run at single shot at 5uM compound concentration per well. The biological reagents consisted of NIH-3T3 host cells and trypomastigotes parasitic cells; both cell types were set to a 3.3 * 10^5 cells/mL dilution in assay DMEM by means of a CASY cell counter device using a 60um capillary. 6 uL of the mixture were dispensed per well (about 1 * 10^3 host-cells and 1 * 10^3 parasites) with a Multidrop Combi dispenser. […] In all wells, the percentage of DMSO never exceeded 0.5%. Plates incubated for four days at 37C, 5% CO2. The substrate used for the assay fluorescence intensity (FLINT) readout was resorufin-beta-D-galactopiranoside (Sigma-Aldrich) at 5uM per well. It was diluted in PBS supplemented with the soft detergent Igepal (Fluka).; format: functional, organism-based, Mus musculus; settings: Tulahuen, NIH3T3
[6] = molecular target: Sterol 14-alpha demethylase (Trypanosoma cruzi (strain CL Brener), UniProt Q7Z1V1); assay: GSK_TCAKS: pIC50 CYP51 from Trypanosoma cruzi.; format: functional
Sequence of Sterol 14-alpha demethylase (Q7Z1V1 whole entry): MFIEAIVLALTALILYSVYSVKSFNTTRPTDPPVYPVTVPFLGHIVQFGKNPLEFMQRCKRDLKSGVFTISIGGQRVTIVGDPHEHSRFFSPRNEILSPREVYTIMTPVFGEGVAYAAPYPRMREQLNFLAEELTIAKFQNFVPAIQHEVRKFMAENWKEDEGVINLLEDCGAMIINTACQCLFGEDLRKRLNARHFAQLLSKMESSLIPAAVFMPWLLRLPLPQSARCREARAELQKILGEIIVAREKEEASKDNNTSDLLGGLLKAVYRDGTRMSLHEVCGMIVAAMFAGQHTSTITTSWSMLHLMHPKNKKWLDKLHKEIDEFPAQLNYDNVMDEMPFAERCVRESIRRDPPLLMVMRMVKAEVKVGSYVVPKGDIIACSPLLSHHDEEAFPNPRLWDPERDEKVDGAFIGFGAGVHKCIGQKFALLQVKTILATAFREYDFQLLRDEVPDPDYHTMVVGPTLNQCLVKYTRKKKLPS

[7] = test system: Trypanosoma brucei brucei; assay: GSK_TCAKS: pIC50 Trypanosoma brucei viability assay using luminiscence. Assay plates (1536-well) were prepared. T. brucei cultures were harvested and counted in a CASY cell counter. A parasite suspension was prepared at a final concentration of 5 * 10^4 cells/mL in complete HMI9 medium and 6uL was dispensed to all wells containing compounds using a Multidrop Combi dispenser. 6uL of HMI9 media with 0.4% DMSO were dispensed to control columns. Plates were incubated for 24 h at 37C, 5% CO2 then tempered for 10 min at room temperature. ATP content was quantified by adding 4 uL of CellTiter-Glo Reagent (Promega) according to the manufacturer's instructions. Luminescence was measured using a ViewLux.; format: functional, organism-based; settings: Lister 427, CASY
[8] = test system: Trypanosoma cruzi; assay: as §1, with “Trypanosoma cruzi” for “H2C9”, “Amastigotes/Cell.” for “H9c2 Host Cardiomyocytes.”, “number” for “Number”, “amastigotes per cell as infection level measurement.” for “H9c2 Host Cardiomyocytes nuclei to determine drug-related cytotoxicity.”; format: functional, organism-based, Rattus norvegicus; settings: H9c2, 4 h
[9] = test system: Leishmania donovani; assay: GSK_TCAKS: pIC50 Leishmania donovani Imaging: Infected Macrophages. Assay plates (384-well) were prepared by adding 250nL of compound to each well. For single shot assay, the final compound concentration was 5 uM. […] Automated image analysis was performed with a script developed on Acapella High Content Imaging and Analysis Software (PerkinElmer). Output: Percent of infected macrophage cells were reported for each well.; format: functional, organism-based, Homo sapiens; settings: THP-1
[10] = GSK_TCAKS: pIC50 HepG2 human cell line viability assay using luminiscence. […] Seeding density was checked to ensure that new mono-layers were not more than 50% confluent at the time of harvesting. Cell suspension was added to 500 mL of the same medium at a final density of 1.2 * 10^5 cells/mL. This cell suspension was dispensed (25 uL, 3000 cells per well) into 384-well clear-bottom plates using a Multidrop Combi dispenser. Prior to addition of the cell suspension, the screening compounds (250 nL) were pre-dispensed into the plates with an Echo liquid handler. Plates were incubated for 48 h at 37C, 5% CO2. After incubation, plates equilibrated at room temperature for 30 min before proceeding to develop the luminescent signal. The signal developer, CellTiter-Glo Reagent, was allowed to equilibrate at room temperature for 30 min and added to the plates (25uL per well) using a Multidrop Combi dispenser. Plates were left for 10 min at room temperature for stabilization and then read using a ViewLux.; format: toxicity, cell-based
[11] = test system: Trypanosoma cruzi; assay: as §1, with “Trypanosoma cruzi” for “H2C9”, “Infected Cells.” for “H9c2 Host Cardiomyocytes.”, “percentage” for “Number”, “infected cells per well as a second infection marker.” for “H9c2 Host Cardiomyocytes nuclei to determine drug-related cytotoxicity.”; format: functional, organism-based, Rattus norvegicus; settings: H9c2, 4 h
[12] = test system: Leishmania donovani; assay: GSK_TCAKS: pIC50 Leishmania donovani Imaging: Amastigotes/Macrophages. Assay plates (384-well) were prepared by adding 250nL of compound to each well. For single shot assay, the final compound concentration was 5 uM. […] Automated image analysis was performed with a script developed on Acapella High Content Imaging and Analysis Software (PerkinElmer). Output: Average number of amastigotes per macrophage cell were reported for each well.; format: functional, organism-based, Homo sapiens; settings: THP-1

Structure (SMILES)	IC50 [1] [µM]	IC50 [2] [µM]	IC50 [3] [µM]	IC50 [4] [µM]	IC50 [5] [µM]	IC50 [6] [µM]	IC50 [7] [µM]	IC50 [8] [µM]	IC50 [9] [µM]	IC50 at 48 h [10] [µM]	IC50 [11] [µM]	IC50 [12] [µM]
Cc1cnc(Nc2cc(Cc3ccccc3)nc(N[C@H]3CC[C@H](O)CC3)n2)s1	0.0316	0.0251	0.0251	0.794	0.126	> 100	0.0398	0.0501	0.0398	25.1	0.126	0.0316
COc1cccc(-c2c(C)nn(-c3nc(N)nc(-c4ccccn4)n3)c2N)c1	> 50.1	> 50.1	> 39.8	5.01	2.51	> 100	> 39.8	0.501	2	> 100	2	1.58
CC(C)c1nn(-c2nc(N)nc(-c3ccccn3)n2)c(N)c1C1CCCCC1	3.16	5.01	7.94	7.94	2	3.16	7.94	1.26	1	20	1.26	0.794
Cc1nn(-c2nc(N)nc(-c3ccccn3)n2)c(C)c1Cc1ccccc1	20	> 50.1	> 39.8	5.01	2.51	63.1	6.31	2	3.16	> 100	3.16	2.51
Cc1occc1C(=O)Nc1ccccc1C(=O)Nc1nccs1	> 50.1	> 50.1	0.398	> 50.1	> 50.1	> 100	0.501	31.6	> 50.1	> 100	> 50.1	> 50.1
COc1cccc(CN(C)Cc2nc(N)c3c(C)c(C)sc3n2)c1	> 50.1	31.6	5.01	31.6	6.31	> 100	3.98	15.8	5.01	39.8	15.8	3.16
CC(C)Nc1nc(Cl)nc2ccccc12	7.94	20	5.01	20	3.98	> 100	12.6	3.98	2.51	39.8	10	1.26
Cc1cc2nc(CN(C)Cc3ncccc3C)[nH]c2cc1C	12.6	7.94	0.631	5.01	0.501	79.4	0.631	0.501	0.631	39.8	1	0.501
CC(C)(C)CC(=O)NCc1noc(COc2ccccc2)n1	> 50.1	> 50.1	0.631	> 50.1	2.82	50.1	0.794	2.51	> 50.1	> 100	2.51	> 50.1
O=C(Cn1cnc2c(-c3ccccc3)csc2c1=O)N1CCCCC1	> 50.1	> 50.1	0.794	> 50.1	3.55	39.8	1	3.16	> 50.1	> 100	3.98	> 50.1
CN(CCOc1ccc(Cl)cc1)Cc1nc(N)nc(N(C)C)n1	> 50.1	> 50.1	25.1	15.8	5.01	31.6	15.8	7.94	7.94	> 100	10	5.01
Cc1cc(=O)n2nc(Oc3ccc(C#N)cc3Cl)sc2n1	31.6	31.6	0.631	12.6	15.8	> 100	0.316	25.1	31.6	39.8	31.6	31.6
